Assay results reported in US20060281764A1, “AMINOPYRIMIDINES AS KINASE MODULATORS” (priority 2005, published 2006).

Each compound was assayed against T1, FLT ligand-induced wild-type FLT3 phosphorylation in Baf3 FLT3 cells (Homo sapiens, UniProt P36888) (assay: Cell-Based FLT3 Receptor Elisa (Baf3 FLT3 cells)). Conditions: 1 hour compound incubation, 100 ng/mL Flt ligand, uncertainty ±20%.
T1 construct: host or cells: Baf3 (murine B cell lymphoma line)
T1 sequence (P36888 27-993): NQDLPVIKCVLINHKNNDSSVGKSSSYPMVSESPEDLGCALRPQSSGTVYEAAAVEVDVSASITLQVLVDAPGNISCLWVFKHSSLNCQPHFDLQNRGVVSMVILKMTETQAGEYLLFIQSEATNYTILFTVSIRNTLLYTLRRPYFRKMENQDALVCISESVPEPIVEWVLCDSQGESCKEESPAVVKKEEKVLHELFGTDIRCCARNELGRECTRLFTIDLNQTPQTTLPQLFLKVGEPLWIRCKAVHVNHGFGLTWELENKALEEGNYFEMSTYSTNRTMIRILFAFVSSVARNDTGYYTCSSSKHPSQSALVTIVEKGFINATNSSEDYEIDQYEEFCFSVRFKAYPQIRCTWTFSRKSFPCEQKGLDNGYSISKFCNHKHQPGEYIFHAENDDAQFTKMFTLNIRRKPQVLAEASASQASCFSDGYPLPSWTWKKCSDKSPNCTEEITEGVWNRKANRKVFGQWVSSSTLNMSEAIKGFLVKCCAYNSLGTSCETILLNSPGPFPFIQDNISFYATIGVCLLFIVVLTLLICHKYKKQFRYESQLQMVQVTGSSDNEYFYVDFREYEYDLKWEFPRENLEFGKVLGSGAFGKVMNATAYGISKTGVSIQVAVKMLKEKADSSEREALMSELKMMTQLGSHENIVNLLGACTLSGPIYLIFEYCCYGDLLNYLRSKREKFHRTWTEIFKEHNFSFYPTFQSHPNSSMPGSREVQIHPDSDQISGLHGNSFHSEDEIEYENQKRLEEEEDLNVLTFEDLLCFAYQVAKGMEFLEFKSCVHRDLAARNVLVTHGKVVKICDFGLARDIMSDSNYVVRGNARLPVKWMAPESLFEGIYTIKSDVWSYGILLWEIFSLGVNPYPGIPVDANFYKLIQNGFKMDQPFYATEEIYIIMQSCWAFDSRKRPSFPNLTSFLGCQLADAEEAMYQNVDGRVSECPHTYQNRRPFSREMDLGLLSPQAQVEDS
Procedure: Specific cellular inhibition of FLT ligand-induced wild-type FLT3 phosphorylation was measured in the following manner: Baf3 FLT3 cells overexpressing the FLT3 receptor were obtained from Dr. Michael Heinrich (Oregon Health and Sciences University). The Baf3 FLT3 cell lines were created by stable transfection of parental Baf3 cells (a murine B cell lymphoma line dependent on the cytokine IL-3 for growth) with wild-type FLT3. Cells were selected for their ability to grow in the absence of IL-3 and in the presence of FLT3 ligand.
Baf3 cells were maintained in RPMI 1640 with 10% FBS, penn/strep and 10 ng/ml FLT ligand at 37° C., 5% CO2. To measure direct inhibition of the wild-type FLT3 receptor activity and phosphorylation a sandwich ELISA method was developed similar to those developed for other RTKs (3,4). 200 μL of Baf3FLT3 cells (1×10^6/mL) were plated in 96 well dishes in RPMI 1640 with 0.5% serum and 0.01 ng/mL IL-3 for 16 hours prior to 1 hour compound or DMSO vehicle incubation. Cells were treated with 100 ng/mL Flt ligand (R&D Systems Cat# 308-FK) for 10 min. at 37° C. Cells were pelleted, washed and lysed in 100 ul lysis buffer (50 mM Hepes, 150 mM NaCl, 10% Glycerol, 1% Triton —X-100, 10 mM NaF, 1 mM EDTA, 1.5 mM MgCl2, 10 mM NaPyrophosphate) supplemented with phosphatase (Sigma Cat# P2850) and protease inhibitors (Sigma Cat #P8340). […]
For `CC(C)Oc1ccc(NC(=O)OC2CCN(c3ncnc(N)c3/C=N/OCCCN(C)C)CC2)cc1` [Example 4, (4-Isopropoxy-phenyl)-carbamic acid 1-{6-amino-5-[(3-dimethylamino-propoxyimino)-methyl]-pyrimidin-4-yl}-piperidin-4-yl ester], the IC50 was 0.345 µM.

These compounds were tested against T2, TrkB (Homo sapiens, UniProt Q16620) (assay: Trk B Fluorescence Polarization Kinase Assay). Conditions: FP assay, 150 uM ATP, 50 nM TrkB; uncertainty ±10%.
T2 construct: purchased Upstate 14-507M
T2 sequence (Q16620 32-822): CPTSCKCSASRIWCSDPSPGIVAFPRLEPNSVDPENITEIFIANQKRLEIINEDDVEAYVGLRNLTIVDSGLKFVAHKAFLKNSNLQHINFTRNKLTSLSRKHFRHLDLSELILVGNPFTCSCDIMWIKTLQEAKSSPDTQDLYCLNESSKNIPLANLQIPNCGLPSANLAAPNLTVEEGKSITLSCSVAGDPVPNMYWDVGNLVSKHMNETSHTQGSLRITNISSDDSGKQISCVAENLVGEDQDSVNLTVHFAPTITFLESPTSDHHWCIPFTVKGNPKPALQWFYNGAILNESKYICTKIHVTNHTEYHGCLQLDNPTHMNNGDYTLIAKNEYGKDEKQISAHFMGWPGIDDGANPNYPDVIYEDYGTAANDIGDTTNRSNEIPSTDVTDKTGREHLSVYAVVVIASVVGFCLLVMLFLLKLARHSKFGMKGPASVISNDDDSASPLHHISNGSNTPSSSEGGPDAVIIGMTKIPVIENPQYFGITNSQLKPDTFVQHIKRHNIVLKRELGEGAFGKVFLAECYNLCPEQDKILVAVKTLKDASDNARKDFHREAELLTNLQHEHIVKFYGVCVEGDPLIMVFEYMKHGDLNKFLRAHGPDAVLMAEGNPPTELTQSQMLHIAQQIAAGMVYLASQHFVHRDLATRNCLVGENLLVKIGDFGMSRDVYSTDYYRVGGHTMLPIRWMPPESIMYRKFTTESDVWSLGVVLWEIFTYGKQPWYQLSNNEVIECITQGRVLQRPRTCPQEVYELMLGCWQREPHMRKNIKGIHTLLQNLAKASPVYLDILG
Format: biochemical
Procedure: The compounds of the present invention are also specific inhibitors of TrkB. Selection of preferred compounds of Formula I for use as TrkB inhibitors was performed in the following manner. The TrkB assay utilized the fluorescein-labeled phosphopeptide and the anti-phosphotyrosine antibody included in the Panvera Phospho-Tyrosine Kinase Kit (Green) supplied by Invitrogen. When TrkB phosphorylated poly Glu4Tyr, the fluorescein-labeled phosphopeptide was displaced from the anti-phosphotyrosine antibody by the phosphorylated poly Glu4Tyr, thus decreasing the FP value. The TrkB kinase reaction was incubated at room temperature for 30 minutes under the following conditions: 50 nM TrkB (Upstate, catalog # 14-507M), 20 ug/mL poly Glu4Tyr, 150 uM ATP, 5 mM MgCl2, 1% compound in DMSO. The kinase reaction was stopped with the addition of EDTA. The fluorescein-labeled phosphopeptide and the anti-phosphotyrosine antibody were added and incubated for 30 minutes at room temperature. Data points were an average of triplicate samples. Inhibition and IC50 data analysis were done with GraphPad Prism using a non-linear regression fit with a multiparamater, sigmoidal dose-response (variable slope) equation.
Compound `CO/N=C/c1c(N)ncnc1N1CCC(OC(=O)Nc2ccc(OC(C)C)cc2)CC1` [Example 1, (4-Isopropoxy-phenyl)-carbamic acid 1-[6-amino-5-(methoxyimino-methyl)-pyrimidin-4-yl]-piperidin-4-yl ester] has an IC50 of 29.4 µM.
With `CCO/N=C/c1c(N)ncnc1N1CCC(OC(=O)Nc2ccc(OC(C)C)cc2)CC1` [Example 2, (4-Isopropoxy-phenyl)-carbamic acid 1-[6-amino-5-(ethoxyimino-methyl)-pyrimidin-4-yl]-piperidin-4-yl ester] the IC50 was over 42 µM.
With `CC(C)Oc1ccc(NC(=O)OC2CCN(c3ncnc(N)c3/C=N/OCCN3CCOCC3)CC2)cc1` [Example 3, (4-Isopropoxy-phenyl)-carbamic acid 1-{6-amino-5-[(2-morpholin-4-yl-ethoxyimino)-methyl]-pyrimidin-4-yl}-piperidin-4-yl ester] the IC50 was over 42 µM.
Compound `CC(C)Oc1ccc(NC(=O)OC2CCN(c3ncnc(N)c3/C=N/OCCCN(C)C)CC2)cc1` [Example 4, (4-Isopropoxy-phenyl)-carbamic acid 1-{6-amino-5-[(3-dimethylamino-propoxyimino)-methyl]-pyrimidin-4-yl}-piperidin-4-yl ester] has an IC50 of over 42 µM.
Work on `CO/N=C/c1c(N)ncnc1N1CCC(OC(=O)Nc2ccc(C(C)C)cc2)CC1` [Example 5, (4-Isopropyl-phenyl)-carbamic acid 1-[6-amino-5-(methoxyimino-methyl)-pyrimidin-4-yl]-piperidin-4-yl ester] yielded an IC50 of 23.9 µM.
Work on `CO/N=C/c1c(N)ncnc1N1CCC(CC(=O)Nc2ccc(C(C)C)cc2)C1` (stereo not shown) [Example 6, 2-{1-[6-Amino-5-(methoxyimino-methyl)-pyrimidin-4-yl]-pyrrolidin-3-yl}-N-(4-isopropyl-phenyl)-acetamide] yielded an IC50 of 0.3 µM.
`CO/N=C/c1c(N)ncnc1N1CCC(CC(=O)Nc2ccc(C(C)C)cc2)CC1` [Example 7, 2-{1-[6-Amino-5-(methoxyimino-methyl)-pyrimidin-4-yl]-piperidin-4-yl}-N-(4-isopropyl-phenyl)-acetamide] showed an IC50 of 2.16 µM.
`CO/N=C/c1c(N)ncnc1N1CCC(NC(=O)Nc2ccc(OC(C)C)cc2)C1` (stereo not shown) [Example 8, 1-{1-[6-Amino-5-(methoxyimino-methyl)-pyrimidin-4-yl]-pyrrolidin-3-yl}-3-(4-isopropoxy-phenyl)-urea] showed an IC50 of 14.2 µM.
`CO/N=C/c1c(N)ncnc1N1CCC(NC(=O)Nc2ccc(N3CCCCC3)cc2)C1` (stereo not shown) [Example 9, 1-{1-[6-Amino-5-(methoxyimino-methyl)-pyrimidin-4-yl]-pyrrolidin-3-yl}-3-(4-piperidin-1-yl-phenyl)-urea] gave an IC50 of 11.9 µM.
For `CO/N=C/c1c(N)ncnc1N1CCC(NC(=O)Nc2ccc(N3CCOCC3)cc2)C1` (stereo not shown) [Example 10, 1-{1-[6-Amino-5-(methoxyimino-methyl)-pyrimidin-4-yl]-pyrrolidin-3-yl}-3-(4-morpholin-4-yl-phenyl)-urea], the IC50 was 32.1 µM.
`CO/N=C/c1c(N)ncnc1N1CCC(NC(=O)Nc2ccc(OC3CCC3)nc2)C1` (stereo not shown) [Example 11, 1-{1-[6-Amino-5-(methoxyimino-methyl)-pyrimidin-4-yl]-pyrrolidin-3-yl}-3-(6-cyclobutoxy-pyridin-3-yl)-urea] was tested, and the IC50 was 4.2 µM.
In the case of `CO/N=C/c1c(N)ncnc1N1CCC(NC(=O)Nc2ccc(OC(C)C)cc2)CC1` [Example 12, 1-{1-[6-Amino-5-(methoxyimino-methyl)-pyrimidin-4-yl]-piperidin-4-yl}-3-(4-isopropoxy-phenyl)-urea], the IC50 is reported as 8.5 µM.
Work on `CO/N=C/c1c(N)ncnc1N1CCC(NC(=O)Nc2ccc(N3CCCCC3)cc2)CC1` [Example 13, 1-{1-[6-Amino-5-(methoxyimino-methyl)-pyrimidin-4-yl]-piperidin-4-yl}-3-(4-piperidin-1-yl-phenyl)-urea] yielded an IC50 of 2.9 µM.
`CO/N=C/c1c(N)ncnc1N1CCC(NC(=O)Nc2ccc(N3CCOCC3)cc2)CC1` [Example 14, 1-{1-[6-Amino-5-(methoxyimino-methyl)-pyrimidin-4-yl]-piperidin-4-yl}-3-(4-morpholin-4-yl-phenyl)-urea] was tested, and the IC50 was 15.6 µM.
`CO/N=C/c1c(N)ncnc1N1CCC(NC(=O)Nc2ccc(OC3CCC3)nc2)CC1` [Example 15, 1-{1-[6-Amino-5-(methoxyimino-methyl)-pyrimidin-4-yl]-piperidin-4-yl}-3-(6-cyclobutoxy-pyridin-3-yl)-urea] was tested, and the IC50 was over 42 µM.
With `CO/N=C/c1c(N)ncnc1N1CCC(NC(=O)Cc2ccc(C(C)C)cc2)CC1` [Example 16, N-{1-[6-Amino-5-(methoxyimino-methyl)-pyrimidin-4-yl]-piperidin-4-yl}-2-(4-isopropyl-phenyl)-acetamide] the IC50 was 7.4 µM.

The compounds below were run against T3, isolated kinase domain of the human c-kit receptor (Homo sapiens, UniProt P10721) (assay: c-Kit Fluorescence Polarization Kinase Assay). Conditions: FP assay, 50 uM ATP, 1 nM c-kit; uncertainty ±10%.
T3 construct: isolated kinase domain of the human c-kit receptor; purchased ProQinase lot SP005
T3 sequence (P10721 589-937 limits assumed): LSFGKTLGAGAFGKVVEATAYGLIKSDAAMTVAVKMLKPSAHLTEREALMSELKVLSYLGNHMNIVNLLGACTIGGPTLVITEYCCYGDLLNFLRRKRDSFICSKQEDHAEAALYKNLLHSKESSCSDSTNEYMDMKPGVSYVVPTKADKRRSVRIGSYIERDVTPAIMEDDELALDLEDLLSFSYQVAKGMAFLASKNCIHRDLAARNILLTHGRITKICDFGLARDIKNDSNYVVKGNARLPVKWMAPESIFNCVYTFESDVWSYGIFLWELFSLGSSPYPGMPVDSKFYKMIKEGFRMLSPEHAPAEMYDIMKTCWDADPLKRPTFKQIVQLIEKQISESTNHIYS
Format: biochemical
Procedure: The compounds of the present invention are also specific inhibitors of c-Kit. Selection of preferred compounds of Formula I for use as c-Kit inhibitors was performed in the following manner using an in vitro kinase assay to measure inhibition of the isolated kinase domain of the human c-kit receptor in a fluorescence polarization (FP) protocol. The c-kit assay utilized the fluorescein-labeled phosphopeptide and the anti-phosphotyrosine antibody included in the Panvera Phospho-Tyrosine Kinase Kit (Green) supplied by Invitrogen. When c-kit phosphorylated the poly Glu4Tyr, the fluorescein-labeled phosphopeptide was displaced from the anti-phosphotyrosine antibody by the phosphorylated poly Glu4Tyr, thus decreasing the FP value. The c-kit kinase reaction was incubated at room temperature for 45 minutes under the following conditions: 1 nM c-kit (ProQinase, lot SP005), 100 ug/mL poly Glu4Tyr, 50 uM ATP, 5 mM MgCl2, 1 mM DTT, 0.01% Tween-20, 1% DMSO or compound in […], pH 7.5. The kinase reaction was stopped with the addition of EDTA. The fluorescein-labeled phosphopeptide and the anti-phosphotyrosine antibody were added and incubated for 30 minutes at room temperature and fluorescence polarization was read. Data points were an average of triplicate samples. […]
For `CCO/N=C/c1c(N)ncnc1N1CCC(OC(=O)Nc2ccc(OC(C)C)cc2)CC1` [Example 2, (4-Isopropoxy-phenyl)-carbamic acid 1-[6-amino-5-(ethoxyimino-methyl)-pyrimidin-4-yl]-piperidin-4-yl ester], the IC50 was 0.38 µM.
`CO/N=C/c1c(N)ncnc1N1CCC(CC(=O)Nc2ccc(C(C)C)cc2)C1` (stereo not shown) [Example 6, 2-{1-[6-Amino-5-(methoxyimino-methyl)-pyrimidin-4-yl]-pyrrolidin-3-yl}-N-(4-isopropyl-phenyl)-acetamide] gave an IC50 of 0.016 µM.
